Reference: ChEMBL document CHEMBL6120962, “New Mitochondria-Targeted Fisetin Derivative Compromises Mitophagy and Limits Survival of Drug-Induced Senescent Breast Cancer Cells” (J Med Chem, 2024)
Active and inactive are the calls of the source. The calls are words filed in the database; no cut-off is given here.

Experiments:
MCF-10F [1] = assay: Induction of mitochondrial dysfunction in human MCF-10F cells assessed as increase in proton leak at 5 uM incubated for 6 hrs by real time analysis; format: functional, cell-based
[2] = target: RAC-alpha serine/threonine-protein kinase (Homo sapiens) (UniProt P31749); assay: Binding affinity to recombinant human AKT (14 to 276 residues) assessed as interaction by measuring decrease in chemiluminescence signal at 0.01 to 5 uM incubated overnight by dot-blot analysis; details: dose 0.01-5 µM
ZR-75-30 [3] = assay: Effect on IL-8 level in human ZR-75-30 cells at 5 uM incubated for 24 hrs by immunostaining based imaging cytometric analysis; format: functional, cell-based
[4] = target: T1, Receptor-interacting serine/threonine-protein kinase 1 (Homo sapiens) (UniProt Q13546); assay: Induction of RIP1 phosphorylation in human HCC1428 cells at 1 to 5 uM incubated for 24 hrs by Western blot analysis; format: cell-based; details: dose 1-5 µM
T1 sequence (whole entry): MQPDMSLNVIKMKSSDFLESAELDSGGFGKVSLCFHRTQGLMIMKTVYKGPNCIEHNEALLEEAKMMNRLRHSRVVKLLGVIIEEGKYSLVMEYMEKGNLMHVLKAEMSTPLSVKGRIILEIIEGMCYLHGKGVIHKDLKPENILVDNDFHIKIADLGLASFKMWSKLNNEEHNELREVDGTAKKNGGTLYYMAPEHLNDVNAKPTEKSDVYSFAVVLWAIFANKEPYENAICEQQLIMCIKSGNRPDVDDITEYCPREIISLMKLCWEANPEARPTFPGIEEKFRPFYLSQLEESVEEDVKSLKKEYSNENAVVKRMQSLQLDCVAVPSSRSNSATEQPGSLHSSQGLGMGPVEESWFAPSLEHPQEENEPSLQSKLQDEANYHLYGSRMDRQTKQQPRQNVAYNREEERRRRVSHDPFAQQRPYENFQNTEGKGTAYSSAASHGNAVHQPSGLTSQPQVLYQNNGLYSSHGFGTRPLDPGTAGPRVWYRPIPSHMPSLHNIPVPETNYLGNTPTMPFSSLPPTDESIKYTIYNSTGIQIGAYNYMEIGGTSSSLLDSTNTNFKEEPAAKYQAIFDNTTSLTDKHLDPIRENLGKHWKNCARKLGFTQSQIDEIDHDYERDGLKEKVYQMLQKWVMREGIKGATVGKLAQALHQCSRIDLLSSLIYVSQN

[5] = target: Apoptosis regulator Bcl-2 (Homo sapiens) (UniProt P10415); assay: Binding affinity to recombinant human Bcl-2 assessed as interaction by measuring decrease in chemiluminescence signal at 0.01 to 5 uM incubated overnight by dot-blot analysis; details: dose 0.01-5 µM
HCC1428 [6] = assay: Induction of apoptosis in tamoxifen-induced senescent human HCC1428 cells assessed as decrease in HSP90 level incubated for 24 hrs by immunostaining based imaging cytometric analysis; format: functional, cell-based
HCC1428 [7] = assay: Induction of senescence in human HCC1428 cells assessed as increase in IL-8 level at 5 uM incubated for 24 hrs by immunostaining based imaging cytometric analysis; format: functional, cell-based
HCC1428 [8] = assay: Induction of autophagosome formation in tamoxifen-induced senescent human HCC1428 cells assessed as increase in ubiquitin level at 1 to 5 uM by immunostaining based imaging cytometric analysis; format: functional, cell-based; details: dose 1-5 µM
ZR-75-30 [9] = assay: Induction of apoptosis in human ZR-75-30 cells assessed as decrease in Bcl2 level at 1 to 5 uM incubated for 24 hrs by Western blot analysis; format: functional, cell-based; details: dose 1-5 µM
Mitochondrial membrane [10] = assay: Induction of mitochondrial membrane potential depolarization in human ZR-75-30 cells assessed as increase in fraction of depolarized dead cells at 5 uM incubated for 24 hrs by 7-AAD staining based flow cytometric analysis; format: cell membranes
HCC1428 [11] = assay: Induction of oxidative stress in tamoxifen-induced senescent human HCC1428 cells assessed as increase in mitochondrial superoxide production at 1 to 5 uM incubated for 24 hrs by MitoSOX red superoxide indicator based fluorescence analysis; format: functional, cell-based; details: dose 1-5 µM
ZR-75-30 [12] = assay: Induction of oxidative stress in tamoxifen-induced senescent human ZR-75-30 cells assessed as increase in cytosolic SOD1 level at 1 to 5 uM incubated for 24 hrs by MitoSOX red superoxide indicator based fluorescence analysis; format: functional, cell-based; details: dose 1-5 µM
MCF-10F [13] = assay: Induction of mitochondrial dysfunction in human MCF-10F cells assessed as decrease in maximal respiration at 5 uM incubated for 6 hrs by real time analysis; format: functional, cell-based
[14] = Cytotoxicity against human MCF-10F cells assessed as effect on metabolic activity at 1 to 10 uM incubated for 24 hrs by MTT assay; format: toxicity, cell-based; details: dose 1-10 µM
Mitochondrial membrane [15] = assay: Induction of mitochondrial membrane potential depolarization in tamoxifen-induced senescent human MCF-10F cells assessed as increase in depolarized dead cell level at 1 to 5 uM incubated for 24 hrs by 7-AAD staining based flow cytometric analysis; format: cell membranes; details: dose 1-5 µM
HCC1428 [16] = assay: Induction of apoptosis in human HCC1428 cells assessed as phosphatidylserine externalization at 1 to 5 uM incubated for 24 hrs by Annexin V-FITC staining based flow cytometric analysis; format: functional, cell-based; details: dose 1-5 µM
MCF-10F [17] = assay: Induction of mitochondrial dysfunction in human MCF-10F cells assessed as decrease in ATP production at 5 uM incubated for 6 hrs by real time analysis; format: functional, cell-based
HCC1428 [18] = assay: Induction of ubiquitin-dependent mitophagy in tamoxifen-induced senescent human HCC1428 cells assessed as increase in parkin level at 5 uM by immunostaining based imaging cytometric analysis; format: functional, cell-based
CAMA-1 [19] = assay: Induction of senescence in human CAMA-1 cells assessed as increase in IL-8 level at 5 uM incubated for 24 hrs by immunostaining based imaging cytometric analysis; format: functional, cell-based
BJ = assay: Cytotoxicity against human BJ cells assessed as effect on metabolic activity at 1 to 10 uM incubated for 24 hrs by MTT assay; format: toxicity, cell-based; details: dose 1-10 µM
CAMA-1 [20] = assay: Induction of apoptosis in human CAMA-1 cells assessed as decrease in Bcl2 level at 1 to 5 uM incubated for 24 hrs by Western blot analysis; format: functional, cell-based; details: dose 1-5 µM
ZR-75-30 [21] = assay: Induction of apoptosis in tamoxifen-induced senescent human ZR-75-30 cells assessed as phosphatidylserine externalization at 1 to 5 uM incubated for 24 hrs by Annexin V-FITC staining based flow cytometric analysis; format: functional, cell-based; details: dose 1-5 µM
CAMA-1 [22] = assay: Induction of apoptosis in tamoxifen-induced senescent human CAMA-1 cells assessed as phosphatidylserine externalization at 1 to 5 uM incubated for 24 hrs by Annexin V-FITC staining based flow cytometric analysis; format: functional, cell-based; details: dose 1-5 µM
HCC1428 [23] = assay: Induction of apoptosis in tamoxifen-induced senescent human HCC1428 cells assessed as increase in caspase 3 level incubated for 24 hrs by immunostaining based imaging cytometric analysis; format: functional, cell-based
HCC1500 = assay: Induction of apoptosis in tamoxifen-induced senescent human HCC1500 cells assessed as decrease in HSP90 level incubated for 24 hrs by immunostaining based imaging cytometric analysis; format: functional, cell-based
MCF-10F [24] = assay: Induction of mitochondrial dysfunction in tamoxifen-induced senescent human MCF-10F cells assessed as decrease in maximal respiration at 5 uM incubated for 6 hrs by real-time analysis; format: functional, cell-based
HCC1428 [25] = assay: Induction of mitochondrial dysfunction in human HCC1428 cells assessed as increase in proton leak at 5 uM incubated for 6 hrs by real time analysis; format: functional, cell-based
Mitochondrial membrane [26] = assay: Induction of mitochondrial membrane potential depolarization in human ZR-75-30 cells at 1 uM incubated for 24 hrs by 7-AAD staining based flow cytometric analysis; format: cell membranes

Chain of RAC-alpha serine/threonine-protein kinase (Homo sapiens) (P31749 whole entry, the tested form may be a part): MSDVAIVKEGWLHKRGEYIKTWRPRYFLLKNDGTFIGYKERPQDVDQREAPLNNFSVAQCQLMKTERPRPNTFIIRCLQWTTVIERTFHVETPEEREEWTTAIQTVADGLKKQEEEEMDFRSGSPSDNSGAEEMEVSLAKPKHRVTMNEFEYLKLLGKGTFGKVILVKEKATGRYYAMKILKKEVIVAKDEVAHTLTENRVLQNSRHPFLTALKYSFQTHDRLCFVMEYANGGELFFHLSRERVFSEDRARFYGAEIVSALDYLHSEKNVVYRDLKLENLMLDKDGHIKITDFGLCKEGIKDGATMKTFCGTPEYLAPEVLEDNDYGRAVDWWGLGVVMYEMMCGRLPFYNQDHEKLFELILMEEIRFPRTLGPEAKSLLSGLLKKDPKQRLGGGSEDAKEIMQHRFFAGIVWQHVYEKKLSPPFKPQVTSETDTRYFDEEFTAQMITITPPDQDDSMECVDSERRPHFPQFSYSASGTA
Chain of Apoptosis regulator Bcl-2 (Homo sapiens) (P10415 whole entry): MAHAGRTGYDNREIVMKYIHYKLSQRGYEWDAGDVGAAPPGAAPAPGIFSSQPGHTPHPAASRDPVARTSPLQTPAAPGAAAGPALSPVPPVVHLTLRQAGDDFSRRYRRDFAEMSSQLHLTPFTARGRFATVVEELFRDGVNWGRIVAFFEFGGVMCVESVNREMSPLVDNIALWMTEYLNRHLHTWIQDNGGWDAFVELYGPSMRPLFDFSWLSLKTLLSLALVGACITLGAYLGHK

SMILES: CC(=O)Oc1ccc2c(=O)c(OCCCC[P+](c3ccccc3)(c3ccccc3)c3ccccc3)c(-c3ccc4c(c3)OC(c3ccccc3)(c3ccccc3)O4)oc2c1.[I-]
- Activity (MCF-10F [1]): inactive
- Activity [2]: Active
- Activity (ZR-75-30 [3]): inactive
- Activity [4]: inactive
- Activity [5]: Active
- Activity (HCC1428 [6]): Active
- Activity (HCC1428 [7]): Active
- Activity (HCC1428 [8]): inactive
- Activity (ZR-75-30 [9]): Active
- Activity (Mitochondrial membrane [10]): Active
- Activity (HCC1428 [11]): Active
- Activity (ZR-75-30 [12]): Active
- Activity (MCF-10F [13]): inactive
- Activity [14]: Non-toxic
- Activity (Mitochondrial membrane [15]): inactive
- Activity (HCC1428 [16]): Active
- Activity (MCF-10F [17]): inactive
- Activity (HCC1428 [18]): Active
- Activity (CAMA-1 [19]): inactive
- Activity (BJ): Non-toxic
- Activity (CAMA-1 [20]): Active
- Activity (ZR-75-30 [21]): Active
- Activity (CAMA-1 [22]): Active
- Activity (HCC1428 [23]): Active
- Activity (HCC1500): Active
- Activity (MCF-10F [24]): inactive
- Activity (HCC1428 [25]): Active
- Activity (Mitochondrial membrane [26]): Active
